Measurements as given in ChEMBL document CHEMBL3044586, “Design, synthesis, and anticonvulsant screening of some substituted piperazine and aniline derivatives of 5-phenyl-oxazolidin-2,4-diones and 5,5-diphenylimidazolidin-2,4 diones” (Med Chem Res, 2012).
Calls of active or inactive are those of the source. The calls are words filed in the database; no cut-off is given here.

Assays:
Mus musculus [1] = experiment: Neurotoxicity against Mus musculus Swiss albino (mouse) assessed as inability to maintain equilibrium on rod at 30 to 300 mg/kg, ip measured after 0.5 hr by rotarod test; assay type: toxicity, organism-based; design: dose 30-300 mg/kg, route intraperitoneal; conditions: in vivo
Rattus norvegicus [2] = experiment: Neurotoxicity against Rattus norvegicus Wistar (rat) assessed as inability to maintain equilibrium on rod at 30 mg/kg, po measured after 0.5 hr by rotarod test; assay type: toxicity, organism-based; design: dose 30 mg/kg, route oral; conditions: in vivo
Rattus norvegicus [3] = experiment: Presynaptic agonist activity at 5HT1A receptor in Rattus norvegicus Wistar (rat) assessed as change in rectal temperature at 10 mg/kg, ip measured after 60 min (reference value: 0.0 +/- 0.1 degC); assay type: functional, organism-based; design: dose 10 mg/kg
Rattus norvegicus [4] = experiment: Anticonvulsant activity in Rattus norvegicus Wistar (rat) assessed as reduction in maximal electroshock-induced seizures at 30 mg/kg, po measured after 4 hr; assay type: functional, organism-based; design: dose 30 mg/kg
Rattus norvegicus [5] = experiment: Presynaptic agonist activity at 5HT1A receptor in Rattus norvegicus Wistar (rat) assessed as change in rectal temperature at 20 mg/kg, ip measured after 90 min (reference value: -0.2 +/- 0.1 degC); assay type: functional, organism-based; design: dose 20 mg/kg
Rattus norvegicus [6] = experiment: Anticonvulsant activity in Rattus norvegicus Wistar (rat) assessed as reduction in maximal electroshock-induced seizures at 30 mg/kg, po measured after 0.5 hr; assay type: functional, organism-based; design: dose 30 mg/kg
Rattus norvegicus [7] = experiment: Presynaptic agonist activity at 5HT1A receptor in Rattus norvegicus Wistar (rat) assessed as change in rectal temperature at 10 mg/kg, ip measured after 30 min (reference value: -0.1 +/- 0.1 degC); assay type: functional, organism-based; design: dose 10 mg/kg
Rattus norvegicus [8] = experiment: Presynaptic agonist activity at 5HT1A receptor in Rattus norvegicus Wistar (rat) assessed as change in rectal temperature at 20 mg/kg, ip measured after 120 min (reference value: 0.0 +/- 0.1 degC); assay type: functional, organism-based; design: dose 20 mg/kg
Rattus norvegicus [9] = experiment: Presynaptic agonist activity at 5HT1A receptor in Rattus norvegicus Wistar (rat) assessed as change in rectal temperature at 10 mg/kg, ip measured after 120 min (reference value: 0.0 +/- 0.1 degC); assay type: functional, organism-based; design: dose 10 mg/kg
Mus musculus [10] = experiment: Anticonvulsant activity in Mus musculus Swiss albino (mouse) assessed as reduction in maximal electroshock-induced seizure at 30 mg/kg, ip measured after 4 hr; assay type: functional, organism-based; design: dose 30 mg/kg
Mus musculus [11] = experiment: Anticonvulsant activity in Mus musculus Swiss albino (mouse) assessed as reduction in maximal electroshock-induced seizure at 100 mg/kg, ip measured after 0.5 hr; assay type: functional, organism-based; design: dose 100 mg/kg
Rattus norvegicus [12] = experiment: Postsynaptic antagonist activity at 5HT1A receptor in Rattus norvegicus Wistar (rat) assessed as inhibition of 8-OH-DPAT-induced lower lip retraction at 10 to 20 mg/kg, ip administered 45 min prior to 8-OH-DPAT-challenge measured after 15 min; assay type: functional, organism-based
Rattus norvegicus [13] = experiment: Neurotoxicity against Rattus norvegicus Wistar (rat) assessed as inability to maintain equilibrium on rod at 30 mg/kg, po measured after 4 hr by rotarod test; assay type: toxicity, organism-based; design: dose 30 mg/kg, route oral; conditions: in vivo
Rattus norvegicus [14] = experiment: Presynaptic agonist activity at 5HT1A receptor in Rattus norvegicus Wistar (rat) assessed as change in rectal temperature at 20 mg/kg, ip measured after 60 min (reference value: 0.0 +/- 0.1 degC); assay type: functional, organism-based; design: dose 20 mg/kg
Rattus norvegicus [15] = experiment: Presynaptic agonist activity at 5HT1A receptor in Rattus norvegicus Wistar (rat) assessed as change in rectal temperature at 20 mg/kg, ip measured after 30 min (reference value: -0.1 +/- 0.1 degC); assay type: functional, organism-based; design: dose 20 mg/kg
Rattus norvegicus [16] = experiment: Presynaptic agonist activity at 5HT1A receptor in Rattus norvegicus Wistar (rat) assessed as change in rectal temperature at 10 mg/kg, ip measured after 90 min (reference value: -0.2 +/- 0.1 degC); assay type: functional, organism-based; design: dose 10 mg/kg
Mus musculus [17] = experiment: Antagonist activity at 5HT2A receptor in ip dosed Mus musculus Swiss albino (mouse) assessed as inhibition of +/-DOI-induced head twitching administered 60 min prior to +/-DOI-challenge measured for 20 min; assay type: functional; conditions: read-out: ID50 (the source's name)
Mus musculus [18] = experiment: Neurotoxicity against Mus musculus Swiss albino (mouse) assessed as inability to maintain equilibrium on rod at 30 to 300 mg/kg, ip measured after 4 hr by rotarod test; assay type: toxicity, organism-based; design: dose 30-300 mg/kg, route intraperitoneal; conditions: in vivo
Mus musculus [19] = experiment: Anticonvulsant activity in Mus musculus Swiss albino (mouse) assessed as reduction in maximal electroshock-induced seizure at 30 to 300 mg/kg, ip measured after 4 hr; assay type: functional, organism-based
Mus musculus [20] = experiment: Anticonvulsant activity in Mus musculus Swiss albino (mouse) assessed as reduction in maximal electroshock-induced seizure at 30 to 300 mg/kg, ip measured after 0.5 hr; assay type: functional, organism-based
Mus musculus [21] = experiment: Anticonvulsant activity in Mus musculus Swiss albino (mouse) assessed as reduction in maximal electroshock-induced seizure at 300 mg/kg, ip measured after 4 hr; assay type: functional, organism-based; design: dose 300 mg/kg
Mus musculus [22] = experiment: Neurotoxicity against Mus musculus Swiss albino (mouse) assessed as inability to maintain equilibrium on rod at 300 mg/kg, ip measured after 4 hr by rotarod test; assay type: toxicity, organism-based; design: dose 300 mg/kg, route intraperitoneal; conditions: in vivo

Structure (SMILES)	Activity (Mus musculus [1])	Activity (Mus musculus [18])	Activity (Mus musculus [19])	Activity (Mus musculus [20])	other results
O=C1OC(c2ccccc2)C(=O)N1CCNc1ccc(O)cc1 (stereo not given)	Non-toxic	Non-toxic			Activity (Rattus norvegicus [2]): Non-toxic; deltaT (Rattus norvegicus [3]): -0.6 °C; Activity (Rattus norvegicus [4]): Active; deltaT (Rattus norvegicus [5]): -1.6 °C; Activity (Rattus norvegicus [6]): Active; deltaT (Rattus norvegicus [7]): -0.4 °C; deltaT (Rattus norvegicus [8]): -1.1 °C; deltaT (Rattus norvegicus [9]): -0.6 °C; Activity (Mus musculus [10]): Active; Activity (Mus musculus [11]): Active; inhibition (Rattus norvegicus [12]): Active; Activity (Rattus norvegicus [13]): Non-toxic; deltaT (Rattus norvegicus [14]): -1.2 °C; deltaT (Rattus norvegicus [15]): -1 °C; deltaT (Rattus norvegicus [16]): -0.7 °C; ED50 (Mus musculus [17]): 11 mg/kg
O=C1OC(c2ccccc2)C(=O)N1CCN1CCN(c2ccc(Cl)cc2)CC1 (stereo not given)	Non-toxic	Non-toxic	inactive	inactive	
Cc1ccc(N2CCN(CCN3C(=O)OC(c4ccccc4)C3=O)CC2)cc1 (stereo not given)	Non-toxic	Non-toxic	inactive	inactive	
O=C1NC(c2ccccc2)(c2ccccc2)C(=O)N1CCN1CCN(c2ccc([N+](=O)[O-])cc2)CC1	Non-toxic			inactive	Activity (Mus musculus [21]): Active; Activity (Mus musculus [22]): Toxic
O=C1NC(c2ccccc2)(c2ccccc2)C(=O)N1CCN1CCN(c2ccc(Cl)cc2)CC1	Non-toxic	Non-toxic	inactive	inactive	
O=C1NC(c2ccccc2)(c2ccccc2)C(=O)N1CCNc1ccc(Cl)cc1	Non-toxic	Non-toxic	inactive	inactive	
O=C(c1ccc(F)cc1)C1CCN(CCn2c(=O)[nH]c3ccccc3c2=O)CC1 [KETANSERIN]					ED50 (Mus musculus [17]): 0.12 mg/kg
Cc1ccc(NCCN2C(=O)OC(c3ccccc3)C2=O)cc1 (stereo not given)	Non-toxic	Non-toxic	inactive	inactive	
Cc1ccc(NCCN2C(=O)NC(c3ccccc3)(c3ccccc3)C2=O)cc1	Non-toxic	Non-toxic	inactive	inactive	
O=C1OC(c2ccccc2)C(=O)N1CCN1CCN(c2ccc(O)cc2)CC1 (stereo not given)	Non-toxic	Non-toxic	inactive	inactive	
O=C1OC(c2ccccc2)C(=O)N1CCN1CCN(c2ccccn2)CC1 (stereo not given)	Non-toxic	Non-toxic	inactive	inactive	
